Here are results for 17 compounds from US12280032B2, “Methods and compositions for increasing the potency of antifungal agents” (Pacific Northwest Research Institute, priority 2014, dated 2025).

In one assay the test system is S. cerevisiae Strain F45. The assay can be described thus: Zones of growth inhibition on YPD plates containing 10 mM Enamine compound with 50 μg fluconazole disk. The class given is cell-based, Saccharomyces cerevisiae. As to the method:
Zones of Growth Inhibition were Measured for the S. cerevisiae Strain F45 on YPD Plates Containing 10 mM of the Enamine Compound with a 50 μg Fluconazole Disk Applied.
Zones of growth inhibition were also measured for strain F45 in which F45 strains were spread on YPD plates that contained 10 mM of an Enamine compound which was poured into the plate, with a 50 μg fluconazole disk. Enamine is an unsaturated compound derived by the condensation of an aldehyde or ketone with a secondary amine Some enmities have structures that are similar to PE, as such, they were tested to measure their efficacy in increasing sensitivity to an antifungal.

In another assay the test system is S. cerevisiae (F45). Briefly: YPD plate assay with antifungal filter disk, with or without PE. The class given is cell-based, Saccharomyces cerevisiae. Details: Degree of clearance: unit not given here.
For assay [1], the system named is Cryptococcus neoformans (ATCC 24067). Briefly: M.I.C. determination. The assay is classed as cell-based. Conditions: drug alone.
In another assay the test system is the fungus. Briefly: Effects of antifungals in the presence of PE (FIG. 4). The class given is cell-based. The following applies: PE used in conjunction with the antifungal.
The subject of assay [2] is Candida krusei (ATCC 6258). Briefly: M.I.C. determination. Conditions: drug alone. The class given is cell-based.
Assay [3] has as its system Candida glabrata (ATCC 36583). The assay can be described thus: M.I.C. determination. The assay is classed as cell-based. Conditions: drug alone.
For assay [4], the system named is Aspergillus fumigatus (ATCC 13073). The assay can be described thus: M.I.C. determination. The assay is classed as cell-based. The following applies: drug alone.
For another assay, the system named is BY4741 lab strain. The assay can be described thus: YPD plate assay with nystatin disk, with or without PE. The class given is cell-based, Saccharomyces cerevisiae. Conditions: FIG. 9 Panel B. As for the experimental part: In each panel, the top plate is YPD alone with a disc that contains DMSO, the bottom left plate is YPD alone with a disc that contains 50 μg Nystatin and the bottom right plate is YPD plus 10 mM PE with a disc that contains 50 μg Nystatin. The plates in FIG. 9, panel A are spread with the F45 strain. The plates in FIG. 9, panel B are spread with the BY4741 lab strain.
In each panel, the top plate is YPD alone with a disc that contains DMSO, the bottom left plate is YPD alone with a disc that contains 50 μg Nystatin and the bottom right plate is YPD plus 10 mM PE with a disc that contains 50 μg Nystatin. The plates in panel are spread with the F45 strain (FIG. 9, panel A), The plates in FIG. 9, panel Bare spread with the BY4741 lab strain.

Assay [5] has as its system S. cerevisiae biofilm formation. The assay can be described thus: Biofilm formation (colony morphology). The assay is classed as cell-based, Saccharomyces cerevisiae. Conditions: determined by colony morphology; previous experiments. As to the method: In each panel, the left plate is YPD alone and the right plate is YPD plus 10 mM PE (a concentration that inhibits the fluffy colony morphology). Each plate also contains a paper disk containing the DMSO vehicle (FIG. 1, panel A), 25 μg fluconazole (FIG. 1, panel B), 50 μg fluconazole (FIG. 1, panel C), or 100 μg fluconazole (FIG. 1, panel D).
However, previous experiments determined that biofilm formation was inhibited at PE concentrations of 10 mM or higher. Attention is drawn to FIG. 2, in which concentrations of PE that were too low to inhibit biofilm formation (determined by colony morphology) were also shown to increase the sensitivity of the yeast strain flo11D for the fluconazole which further support the hypothesis that the effect of PE on drug sensitivity is independent of its effect on biofilm formation. As such, there is a synergistic effect upon the combination of PE with fluconazole, in which the cells are more sensitive to fluconazole in the presence of PE at a higher concentration (10 mM PE). […] It is noted that even at lower concentrations of PE (<10 mM), in which the colonies are fluffy, indicating an intact cell wall or intact morphology, the PE at lower concentrations can still enhance killing by fluconazole. […] As such, even at a lower concentration, PE in combination with fluconazole has a synergistic effect on inhibiting the growth of the fungal strain.

For assay [6], the system named is C. albicans fluconazole resistant strain R357. Briefly: YPD plate assay with antifungal filter disk, with or without PE. Also noted: unit not given here. The class given is cell-based, Candida albicans. The following applies: C. albicans strain 8357.
Assay [7] relates to Candida albicans (sensitive=ATCC 90028). The assay can be described thus: Checkerboard assay (FICI) of PE with triazole. The class given is cell-based. Conditions: named triazole in combination with PE.
Assay [8] concerns Candida parapsilosis (ATCC 22019). Briefly: M.I.C. determination. The assay is classed as cell-based. Conditions: drug alone.
Assay [9] concerns Candida krusei (ATCC 6258). Briefly: Checkerboard assay (FICI) of PE with triazole. The class given is cell-based. Conditions: named triazole in combination with PE.
The test system of assay [10] is Candida glabrata (ATCC 36583). Briefly: Checkerboard assay (FICI) of PE with triazole. The following applies: named triazole in combination with PE. The class given is cell-based.
Assay [11] concerns Candida tropicalis (ATCC 200956). The assay can be described thus: Checkerboard assay (FICI) of PE with triazole. The assay is classed as cell-based. The following applies: named triazole in combination with PE.
For assay [12], the system named is Candida albicans (resistant=20186.025; 8357). The assay can be described thus: M.I.C. determination. The class given is cell-based. The following applies: drug alone.
For assay [13], the system named is Candida parapsilosis (ATCC 22019). The assay can be described thus: Checkerboard assay (FICI) of PE with triazole. The assay is classed as cell-based. Conditions: named triazole in combination with PE.
Assay [14] concerns Cryptococcus neoformans (ATCC 24067). The assay can be described thus: Checkerboard assay (FICI) of PE with triazole. The assay is classed as cell-based. The following applies: named triazole in combination with PE.
For assay [15], the system named is Candida tropicalis (ATCC 200956). The assay can be described thus: M.I.C. determination. Conditions: drug alone. The class given is cell-based.
Assay [16] has as its system Candida albicans (sensitive=ATCC 90028). Briefly: M.I.C. determination. The assay is classed as cell-based. The following applies: drug alone.
The test system of assay [17] is Aspergillus fumigatus (ATCC 13073). The assay can be described thus: Checkerboard assay (FICI) of PE with triazole. The assay is classed as cell-based. The following applies: named triazole in combination with PE.
For assay [18], the system named is Candida albicans (resistant=20186.025; 8357). The assay can be described thus: Checkerboard assay (FICI) of PE with triazole. The class given is cell-based. The following applies: named triazole in combination with PE.
The mark [19] stands for this setting: 10 mM compound in YPD, 50 μg fluconazole disk, F45.

Turning to `CC(O)c1cccc(O)c1` (stereo not drawn) [A], in the assay on S. cerevisiae Strain F45, the “Fluconazole Zone Size” value is recorded as 11 mm.

Take `OCc1ccccc1` [B]: in the assay with S. cerevisiae Strain F45, the “Fluconazole Zone Size” value amounted to 11 mm.

On to `CC[C@H](C)C[C@H](C)CCCCCCCCC(=O)N[C@H]1C[C@@H](O)[C@@H](NCCN)NC(=O)[C@@H]2[C@@H](O)CCN2C(=O)[C@H]([C@H](O)CCN)NC(=O)[C@H]([C@H](O)[C@@H](O)c2ccc(O)cc2)NC(=O)[C@@H]2C[C@@H](O)CN2C(=O)[C@H]([C@@H](C)O)NC1=O` [Caspofungin], for which the Degree of clearance in the assay with S. cerevisiae (F45) (FIG. 8 Panel A, YPD + 10 mM PE 50 μg Caspofungin (so in the source), F45) is recorded as 0; with S. cerevisiae (F45) (FIG. 8 Panel E, YPD + 10 mM PE + 200 μg Caspofungin, F45) it was 0.

On to `Nc1ccc(CCO)cc1` [Compound C], for which the “Fluconazole Zone Size” value with S. cerevisiae Strain F45 is reported as 13 mm.

For `C[C@H](O)c1cccc(C#N)c1` [D], the “Fluconazole Zone Size” value in the assay on S. cerevisiae Strain F45 is recorded as 17 mm.

As for `OCCNCCc1ccccc1` [E], in the assay with S. cerevisiae Strain F45, the “Fluconazole Zone Size” value was determined as 35 mm. For the same compound, in the assay with S. cerevisiae Strain F45 (setting [19]), the “Activity compared with PE” value was “activity greater than PE” and the “Growth of fungal cells on the plate with fluconazole” value (“Growth of fungal cells on the plate” below) is given as “loss of growth”.

Consider `CCc1ccc(N)cc1` [F], for which, in the assay with S. cerevisiae Strain F45, the “Fluconazole Zone Size” value is on record as “inhibition by compound but not fluconazole”.

With `OC(Cn1cncn1)(Cn1cncn1)c1ccc(F)cc1F` [Fluconazole], the MIC is 0.25 µg in assay [1], 32 µg in assay [2], 8 µg in [3] and >128 µg in [4]. Besides, the “Sensitivity of the fungus to the antifungal in the presence of PE” value (shortened to “Sensitivity of the fungus”) in the assay on the fungus is recorded as “increased the sensitivity”.

Turning to `Nc1[nH]c(=O)ncc1F` [Flucytosine], in the assay on the fungus, the “Sensitivity of the fungus” value was “increased the sensitivity”.

Regarding `CC(C)Cc1ccc(CCCO)cc1` [G], in the assay on S. cerevisiae Strain F45, the “Fluconazole Zone Size” value is “inhibition by compound but not fluconazole”.

Consider `OC1(Cc2ccccc2)CCCC1` [H], for which, in the assay with S. cerevisiae Strain F45, the “Fluconazole Zone Size” value was “no growth”. Also, the “Growth of fungal cells on the plate” value in the assay on S. cerevisiae Strain F45 (setting [19]) was “loss of growth”.

Take `NCCCCOCCc1ccccc1` [I]: the “Fluconazole Zone Size” value in the assay with S. cerevisiae Strain F45 is “no growth”. Moreover, in the assay on S. cerevisiae Strain F45 (setting [19]), the “Growth of fungal cells on the plate” value is “loss of growth”.

For the compound `OCCc1cccc(Cl)c1` [J], the “Fluconazole Zone Size” value in the assay on S. cerevisiae Strain F45 was “no growth”. Further, the “Growth of fungal cells on the plate” value in the assay with S. cerevisiae Strain F45 (setting [19]) is “loss of growth”.

Regarding `C[C@@H]1[C@H](O)[C@@H](C)/C=C/C=C/CC/C=C/C=C/C=C/C=C/C(O[C@H]2O[C@H](C)[C@@H](O)[C@H](N)[C@@H]2O)CC2O[C@](O)(CC(O)C(O)CCC(O)CC(O)CC(O)CC(=O)O[C@H]1C)CC(O)C2C(=O)O` (stereo partly drawn) [Nystatin], the Degree of clearance with BY4741 lab strain (YPD + 50 μg nystatin) is on record as 2; with BY4741 lab strain (YPD + 10 mM PE + 50 μg nystatin), 2; with S. cerevisiae (F45) (FIG. 9 Panel A, Strain F45, YPD + 50 μg nystatin), 2; with S. cerevisiae (F45) (FIG. 9 Panel A, Strain F45, YPD + 10 mM PE + 50 μg nystatin), 2.

For `OCCc1ccccc1` [PE, phenyl ethanol], in [5], the “PE concentration at which biofilm formation was inhibited” value is listed as ≥ 10 mM. Also, in the assay on S. cerevisiae Strain F45, the “Fluconazole Zone Size” value is 27 mm. Also, in the assay on S. cerevisiae (F45) (FIG. 6 Panel A, YPD + 10 mM PE, disk with chloroform vehicle only, F45), the Degree of clearance worked out at 0. Further, in the assay with S. cerevisiae (F45) (YPD plus 10 mM PE, 200 ng-50 μg caspofungin disk, F45, listed as PP), the “Effect of PE on caspofungin sensitivity” value is “no effect”.

Take `CO[C@H]1[C@@H](O)[C@H](O)[C@H](OC[C@@]23C[C@@H]4[C@H](C)CC[C@H]4[C@@]4(C=O)CC2C=C(C(C)C)[C@@]34C(=O)O)O[C@@H]1C` [Sordarin]: the Degree of clearance in assay [6] (FIG. 13 Panel A, YPD + 1 μg sordarin) is reported as 1; in assay [6] (FIG. 13 Panel A, YPD + 1 μg sordarin + 10 mM PE) it was 2; in assay [6] (FIG. 13 Panel B, YPD + 10 μg sordarin) it was 2; in assay [6] (FIG. 13 Panel B, YPD + 10 μg sordarin + 10 mM PE), 3; in assay [6] (FIG. 13 Panel C, YPD + 50 μg sordarin), 3; in assay [6] (FIG. 13 Panel C, YPD + 50 μg sordarin + 10 mM PE), 4. Besides, the Degree of clearance in the assay with S. cerevisiae (F45) (FIG. 7 Panel A, YPD + 10 mM PE + 50 μg Sordarin, F45) came to 4; in the assay on S. cerevisiae (F45) (FIG. 7 Panel A, YPD alone, 50 μg Sordarin disk, F45), 8; in the assay with S. cerevisiae (F45) (FIG. 7 Panel B, YPD + 10 mM PE + 10 μg Sordarin, F45), 3; in the assay with S. cerevisiae (F45) (FIG. 7 Panel B, YPD alone, 10 μg Sordarin disk, F45), 2; in the assay on S. cerevisiae (F45) (FIG. 7 Panel C, YPD + 10 mM PE + 1 μg Sordarin, F45) it was 2; with S. cerevisiae (F45) (FIG. 7 Panel C, YPD alone, 1 μg Sordarin disk, F45), 1. Moreover, the Degree of clearance in the assay with S. cerevisiae (F45) (FIG. 7 Panel D, YPD + 10 mM PE + 500 μg Sordarin, F45) amounted to 1; with S. cerevisiae (F45) (FIG. 7 Panel D, YPD alone, Sordarin disk (500 ng per legend), F45), 0. The “Sensitivity of the fungus” value in the assay with the fungus is recorded as “increased the sensitivity”.

For `C[C@@H](c1ncncc1F)[C@](O)(Cn1cncn1)c1ccc(F)cc1F` [Voriconazole], the FICI is 2.1 in [7]; 1.1 in [9]; 1.2 in assay [10]; 0.6 in assay [11]; 1.6 in assay [13]; 1.1 in assay [14]. For the same compound, the FICI in assay [17] turned out to be 0.6; in assay [18], 0.3. Further, the MIC in [8] is 0.03125 µg; in [1], 0.0156 µg; in assay [12], >128 µg; in assay [2] it was 0.25 µg; in assay [3], 0.5 µg; in [4] it was 0.25 µg. Moreover, the MIC was found to be 32 µg in assay [15] and 0.03125 µg in assay [16]. In the assay with the fungus, the “Sensitivity of the fungus” value is reported as “increased the sensitivity”.
